In brackets after ≈: the same amount, converted by molar mass. Several values for one entry are separate records, joined by “and”; a condition that tells them apart may be missing. Equal entries are not always repeated.
Tested on: BALB/3T3 clone A31
Assay: in vitro 3T3 NRU phototoxicity test
Format: cell-based
Conditions: for PIF (Photo irritation factor): calculated from IC50 with and without UV (Phototox 2.6)
Method: This test was to evaluate phototoxicity after treating cells of BALB/3T3 clone A31 with a sample in the in vitro 3T3 NRU phototoxicity test. The phototoxicity was identified by evaluating cell viability, IC50 according to the presence or absence of light irradiation, and phototoxicity according to concentration response [photo irritation factor (PIF), and mean photo effect (MPE)].
In addition, as a negative control group, PBS diluted in DMEM was used.
Each of test substances was dissolved in PBS and diluted in steps at […] 2.
UVA (315-400 nm) causing a phototoxic reaction by activating chemical materials without toxicity to cells was irradiated, and the amount of light was 5 J/cm^2.
100 μl of cell suspension (1×10^4 cells/well) and medium were dispensed into two 96 well plates per group, and the cells were cultured for 24 hours in a cell incubator at 37° C. and 5% CO^2.
After removing the medium, the cells were washed once with 150 μl of warm PBS.
The UV irradiation plate was irradiated with UVA at a light intensity of 5 J/cm^2, and while UV was irradiated, the non-irradiated plate was shielded with aluminum foil and left at room temperature. After removing the solution, washing was performed twice with 150 μl of warm PBS. 100 μl of the medium was dispensed and the cells were cultured for 20±2 hours in a cell incubator at 37° C. and 5% CO2.
The growth and morphology of the cells were observed using a microscope, the medium was removed therefrom, and then the cells were washed once with 150 μl of warm PBS. After dispensing 100 μl of neutral red medium, the cells were incubated for 3 hours in a cell incubator at 37° C. and 5% CO2. After removing the neutral red medium, the cells were washed once with 150 μl of warm PBS. 150 μl of neutral red extract was dispensed, and the plate was stirred for 10 minutes while light was shielded.
Absorbance was measured at a wavelength of 540 nm by using a multi-channel microplate reader.
Phototoxicity was judged by calculating PIF and MPE values using IC50 according to the presence or absence of light irradiation.
PIF and MPE values were calculated from the measured absorbance values by using the software (Phototox 2.6, ZEBET at the BFR, Berlin Germany), and no statistical method was performed.

## CN(C)CCCN1c2ccccc2Sc2ccc(Cl)cc21 [CPZ]
UV (+), 0.04 μg/mL
  Cell viability (% of NC): 102.67 % of NC
UV (+), 0.08 μg/mL
  Cell viability (% of NC): 89.09 % of NC
UV (+), 0.16 μg/mL
  Cell viability (% of NC): 98.75 % of NC
UV (+), 0.31 μg/mL
  Cell viability (% of NC): 106.73 % of NC
UV (+), 0.63 μg/mL
  Cell viability (% of NC): 103.10 % of NC
UV (+), 2.5 μg/mL
  Cell viability (% of NC): 11.51 % of NC
UV (+), 5 μg/mL
  Cell viability (% of NC): 12.32 % of NC
UV (+), UVA 5 J/cm^2, listed as PC
  IC50 (50% inhibitory concentration, cell viability): 1.650 µg/mL (≈ 5.17 µM)
UV (−), 1.56 μg/mL
  Cell viability (% of NC): 109.65 % of NC
UV (−), 3.13 μg/mL
  Cell viability (% of NC): 103.07 % of NC
UV (−), 6.25 μg/mL
  Cell viability (% of NC): 114.87 % of NC
UV (−), 25 μg/mL
  Cell viability (% of NC): 65.55 % of NC
UV (−), 50 μg/mL
  Cell viability (% of NC): 9.50 % of NC
UV (−), 100 μg/mL
  Cell viability (% of NC): 9.37 % of NC
UV (−), 200 μg/mL
  Cell viability (% of NC): 9.31 % of NC
UV (−), UV not irradiated, listed as PC
  IC50 (50% inhibitory concentration, cell viability): 28.043 µg/mL (≈ 87.9 µM)
Listed as PC
  PIF (Photo irritation factor): 17.144
Listed as positive control material
  PIF (Photo irritation factor): 17.1444 and 17.144
Calculated from concentration response with and without UV (Phototox 2.6)
  MPE (Mean photo effect): 0.459

— patent publication US20230220122A1, “METHOD FOR PRODUCTION OF FUNCTIONAL POLYSACCHARIDE AND COSMETIC COMPOSITION” (CARBOEXPERT INC., priority 2019, published 2023)
